Patent US12161666B2, “Composition comprising cinnamaldehyde and zinc to improve swallowing” (SOCIÉTÉ DES PRODUITS NESTLÉ S.A., priority 2014, dated 2024)

Columns and labels:
[1] = oral administration; cited from earlier work
TRPA1 = TRPA1 (Homo sapiens, UniProt O75762); conditions: read-out: EC50 of TRPA1 activation; cited from earlier work
[2] = target: T1, hTRPA1 expressed in CHO cells (Homo sapiens, UniProt O75762); assay: in vitro activity of hTRPA1 expressed in CHO cells, intracellular calcium measured with a fluorescent dye; assay type: cell-based; parameters: efficacy on hTRPA1 according to dose-response curve: dose or concentration left out as unconfirmed
T1 construct: expressed in transfected cells; host or cells: CHO cells
T1 sequence (O75762 whole entry): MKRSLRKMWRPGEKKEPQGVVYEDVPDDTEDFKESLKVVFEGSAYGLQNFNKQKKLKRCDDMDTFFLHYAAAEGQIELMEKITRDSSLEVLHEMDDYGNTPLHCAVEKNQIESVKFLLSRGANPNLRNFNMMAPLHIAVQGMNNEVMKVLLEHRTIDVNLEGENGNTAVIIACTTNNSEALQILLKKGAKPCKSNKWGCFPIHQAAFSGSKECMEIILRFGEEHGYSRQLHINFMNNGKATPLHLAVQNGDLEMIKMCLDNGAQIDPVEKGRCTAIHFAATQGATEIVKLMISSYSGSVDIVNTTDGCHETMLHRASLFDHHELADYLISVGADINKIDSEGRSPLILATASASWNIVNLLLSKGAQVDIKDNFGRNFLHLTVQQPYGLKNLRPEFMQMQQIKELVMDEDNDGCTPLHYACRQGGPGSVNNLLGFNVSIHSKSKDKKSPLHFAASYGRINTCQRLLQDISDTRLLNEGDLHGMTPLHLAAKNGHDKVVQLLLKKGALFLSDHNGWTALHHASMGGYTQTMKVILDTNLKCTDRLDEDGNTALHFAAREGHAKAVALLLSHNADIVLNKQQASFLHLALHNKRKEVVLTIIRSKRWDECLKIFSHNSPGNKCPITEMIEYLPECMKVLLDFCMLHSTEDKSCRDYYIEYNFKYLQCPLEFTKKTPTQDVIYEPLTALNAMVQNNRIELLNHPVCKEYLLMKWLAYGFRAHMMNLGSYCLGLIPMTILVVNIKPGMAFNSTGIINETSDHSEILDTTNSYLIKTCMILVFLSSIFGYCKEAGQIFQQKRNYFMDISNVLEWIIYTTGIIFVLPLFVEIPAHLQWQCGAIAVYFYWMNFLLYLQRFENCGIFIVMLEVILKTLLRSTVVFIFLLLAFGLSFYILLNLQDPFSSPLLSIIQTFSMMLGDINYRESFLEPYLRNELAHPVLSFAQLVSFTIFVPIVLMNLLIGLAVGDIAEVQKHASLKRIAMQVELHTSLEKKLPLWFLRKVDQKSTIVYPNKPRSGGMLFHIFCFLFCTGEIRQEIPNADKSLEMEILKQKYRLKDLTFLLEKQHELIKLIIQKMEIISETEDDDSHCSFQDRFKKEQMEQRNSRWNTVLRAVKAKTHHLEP
Method: The in vitro activity of hTRPA1 expressed in CHO cells was measured for 10 μM cinnamaldehyde and 0.3 μM zinc individually, as well as the combination.

TRPM8 = TRPM8 (Homo sapiens, UniProt Q7Z2W7); conditions: cited from earlier work
TRPM8, sequence (Q7Z2W7 whole entry, species assumed): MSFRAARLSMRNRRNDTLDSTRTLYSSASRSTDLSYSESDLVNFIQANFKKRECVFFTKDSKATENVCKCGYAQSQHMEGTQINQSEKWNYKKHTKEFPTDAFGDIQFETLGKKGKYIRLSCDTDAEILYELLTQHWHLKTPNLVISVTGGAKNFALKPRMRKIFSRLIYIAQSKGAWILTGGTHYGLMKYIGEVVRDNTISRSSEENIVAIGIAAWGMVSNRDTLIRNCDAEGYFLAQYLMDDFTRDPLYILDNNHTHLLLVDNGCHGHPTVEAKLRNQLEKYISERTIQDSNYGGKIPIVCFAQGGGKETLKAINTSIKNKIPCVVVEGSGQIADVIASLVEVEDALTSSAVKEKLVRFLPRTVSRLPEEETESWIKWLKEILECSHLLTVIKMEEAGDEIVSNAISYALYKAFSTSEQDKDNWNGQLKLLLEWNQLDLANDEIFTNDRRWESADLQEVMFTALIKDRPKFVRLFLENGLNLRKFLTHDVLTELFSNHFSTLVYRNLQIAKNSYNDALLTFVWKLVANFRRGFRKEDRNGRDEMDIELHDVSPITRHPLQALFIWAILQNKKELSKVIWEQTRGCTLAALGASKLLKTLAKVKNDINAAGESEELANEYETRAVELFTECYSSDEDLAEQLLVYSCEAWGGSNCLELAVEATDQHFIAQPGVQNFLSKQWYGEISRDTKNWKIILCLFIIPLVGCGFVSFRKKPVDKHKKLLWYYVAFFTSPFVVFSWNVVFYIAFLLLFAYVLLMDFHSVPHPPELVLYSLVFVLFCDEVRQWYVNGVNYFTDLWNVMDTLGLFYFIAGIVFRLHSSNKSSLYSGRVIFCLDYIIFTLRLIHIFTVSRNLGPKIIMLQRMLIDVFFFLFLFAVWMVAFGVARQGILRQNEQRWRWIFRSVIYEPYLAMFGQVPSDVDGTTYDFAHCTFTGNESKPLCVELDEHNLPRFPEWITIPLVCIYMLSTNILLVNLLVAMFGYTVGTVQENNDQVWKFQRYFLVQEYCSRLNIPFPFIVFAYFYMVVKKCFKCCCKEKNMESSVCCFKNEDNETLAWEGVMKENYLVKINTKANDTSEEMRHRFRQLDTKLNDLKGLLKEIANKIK

TRPV1 = TRPV1 (Homo sapiens, UniProt Q8NER1); conditions: cited from earlier work
TRPV1, sequence (Q8NER1 whole entry, species assumed): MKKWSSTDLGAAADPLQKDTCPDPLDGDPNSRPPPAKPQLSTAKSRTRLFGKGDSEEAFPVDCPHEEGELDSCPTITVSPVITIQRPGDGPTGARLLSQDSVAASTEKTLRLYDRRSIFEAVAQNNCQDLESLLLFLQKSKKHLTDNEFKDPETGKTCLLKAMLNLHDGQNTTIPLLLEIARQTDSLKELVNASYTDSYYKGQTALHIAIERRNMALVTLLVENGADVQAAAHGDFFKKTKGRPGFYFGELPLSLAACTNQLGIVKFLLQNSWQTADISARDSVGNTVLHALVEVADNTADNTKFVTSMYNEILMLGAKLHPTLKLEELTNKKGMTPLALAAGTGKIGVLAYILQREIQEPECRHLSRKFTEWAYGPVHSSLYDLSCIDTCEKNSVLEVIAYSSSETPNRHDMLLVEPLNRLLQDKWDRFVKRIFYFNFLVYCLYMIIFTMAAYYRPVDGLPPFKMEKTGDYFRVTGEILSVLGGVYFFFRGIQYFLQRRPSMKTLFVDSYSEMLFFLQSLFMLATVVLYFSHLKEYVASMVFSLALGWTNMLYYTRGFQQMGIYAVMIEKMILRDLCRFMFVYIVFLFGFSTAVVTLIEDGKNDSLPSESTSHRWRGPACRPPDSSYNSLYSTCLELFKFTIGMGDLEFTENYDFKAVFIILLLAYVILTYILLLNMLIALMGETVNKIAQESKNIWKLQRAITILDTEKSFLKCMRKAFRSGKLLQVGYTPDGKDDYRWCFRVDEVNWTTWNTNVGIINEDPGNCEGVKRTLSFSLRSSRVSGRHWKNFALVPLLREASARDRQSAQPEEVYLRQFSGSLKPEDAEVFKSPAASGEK

TRPA1, sequence (O75762 whole entry, species assumed): as the sequence (O75762 whole entry) above

Compound: COc1cc(CNC(=O)CCCC/C=C/C(C)C)ccc1O [capsaicin]
- promotion of swallow reflex [1]: shown to promote a swallow reflex

Compound: O=CC=Cc1ccccc1 [cinnamaldehyde]
- EC50 (TRPA1): ~10 µM
- efficacy on hTRPA1 according to dose-response curve ([2]; positive control C+, CHO cells): maximum efficacy
- activation of TRPM8 (TRPM8): not TRPV1 or TRPM8
- activation of TRPV1 (TRPV1): not TRPV1

Compound: zinc
- concentration of zinc required for the synergy with cinnamaldehyde on TRPA1 ([2]; in vitro): < 1 µM
